# Where a name gives a salt, the structure may show the parent alone.
# Legend:
# Format in all cases: physicochemical
# [1] = Crystal form stability at room temperature (transformation to H2-1); conditions: H0.75-3: after one night
# Source text: WO20100115974 discloses three forms of saxagliptin hydrochloride (I-S, HT-S, IV-S) but with a water content of not more than 1.5% by weight. […] On the other hand, the saxagliptin hydrochloride dihydrate H2-1 is stable. Unfortunately, it is difficult to prepare it in pure form by an industrial process which could be reproducible at industrial scale.
# [2] = Solubility and stability in water at room temperature; conditions: for Solubility in water compared with saxagliptin HCl dihydrate H2-1 / Solubility in water: volumes of water in which the form is soluble: room temperature
# [3] = Chemical stability at 60° C.-37% RH (amidine impurities by HPLC-MS); conditions: for Color of the solid form after storage: after 1 week
# Description: Crystalline and chemical stability at 60° C.-37% RH: saxagliptin crystalline form I and the known saxagliptin crystalline forms H-1, H2-1 were stored at 60° C. with 37% relative humidity (RH). The samples were analyzed by XRPD and HPLC-MS to check crystalline transformation and chemical degradation.
# (§1) Crystalline and chemical stability at 60° C.—37% RH: Saxagliptin crystalline forms H-1, H2-1 and A were stored at 60° C. with 37% RH. The samples were analyzed by XRPD and HPLC-MS to check crystalline transformation and chemical degradation.
# [4] = Crystalline stability at 60° C.-37% RH (XRPD); conditions: stored at 60° C. with 37% RH
# Description: Crystalline and chemical stability at 60° C.-37% RH: saxagliptin crystalline form I and the known saxagliptin crystalline forms H-1, H2-1 were stored at 60° C. with 37% relative humidity (RH). The samples were analyzed by XRPD and HPLC-MS to check crystalline transformation and chemical degradation. […] However, chemical degradations were observed (see Table 6 below).
# as §1
compound,measurement,setting,value
"N#C[C@@H]1C[C@@H]2C[C@@H]2N1C(=O)[C@@H](N)C12CC3CC(CC(O)(C3)C1)C2 [I-S, saxagliptin hydrochloride]",Crystal form stability (transformation to saxagliptin hydrochloride dihydrate H2-1),[1]; hydrochloride,not very stable
"N#C[C@@H]1C[C@@H]2C[C@@H]2N1C(=O)[C@@H](N)C12CC3CC(CC(O)(C3)C1)C2 [IV-S, saxagliptin hydrochloride]",Crystal form stability (transformation to saxagliptin hydrochloride dihydrate H2-1),[1]; hydrochloride,not very stable
"N#C[C@@H]1C[C@@H]2C[C@@H]2N1C(=O)[C@@H](N)C12CC3CC(CC(O)(C3)C1)C2 [HT-S, saxagliptin hydrochloride]",Crystal form stability (transformation to saxagliptin hydrochloride dihydrate H2-1),[1]; hydrochloride,not very stable
"Cl.N#C[C@@H]1C[C@@H]2C[C@@H]2N1C(=O)[C@@H](N)C12CC3CC(CC(O)(C3)C1)C2.NC(N)=O.NC(N)=O.NC(N)=O [Form IV, saxagliptin HCl.urea cocrystal (1:3)]","Solubility in water (in words, description)",[2],very soluble in water
same,Solubility in water compared with saxagliptin HCl dihydrate H2-1,[2],more soluble
same,Solubility in water: volumes of water in which the form is soluble,[2],approximately 2.5 volumes of water
"N#C[C@@H]1C[C@@H]2C[C@@H]2N1C(=O)[C@@H](N)C12CC3CC(CC(O)(C3)C1)C2 [Form H2-1, saxagliptin hydrochloride dihydrate, reference compound]",Solubility in water: volumes of water in which the form is soluble,[2],5 volumes of water
same,Crystal form stability (transformation to saxagliptin hydrochloride dihydrate H2-1),[1]; hydrochloride dihydrate,stable
"Cl.N#C[C@@H]1C[C@@H]2C[C@@H]2N1C(=O)[C@@H](N)C12CC3CC(CC(O)(C3)C1)C2.O.O=C(O)CO [Form II, saxagliptin HCl glycolic acid cocrystal (1:1) monohydrate]","Solubility in water (in words, description)",[2],quite soluble in water
same,Solubility in water compared with saxagliptin HCl dihydrate H2-1,[2],same solubility
same,Solubility in water: volumes of water in which the form is soluble,[2],5 volumes of water
"N#C[C@@H]1C[C@@H]2C[C@@H]2N1C(=O)[C@@H](N)C12CC3CC(CC(O)(C3)C1)C2 [Form H-1, (1S,3S,5S)-2-[(2S)-2-amino-2-(3-hydroxy-1-adamantyl)acetyl]-2-azabicyclo[3.1.0]hexane-3-carbonitrile]","Δ variation amidine Impurity % (HPLC-MS), impurity (A)",[3]; 16 h (Table 6),0.64% (A)
same,"Δ variation amidine Impurities A and B % (HPLC-MS), impurity (A)",[3]; 16 h (Table 7),0.6% (A)
same,"Δ variation amidine Impurity % (HPLC-MS), impurity (A)",[3]; 168 h (Table 6),2.68%
same,"Δ variation amidine Impurity % (HPLC-MS), impurity (B)",[3]; 168 h (Table 6),2.21%
same,"Δ variation amidine Impurities A and B % (HPLC-MS), impurity (A)",[3]; 168 h (Table 7),2.7%
same,"Δ variation amidine Impurities A and B % (HPLC-MS), impurity (B)",[3]; 168 h (Table 7),2.2%
same,"Δ variation amidine Impurity % (HPLC-MS), impurity (A)",[3]; 184 h (Table 6),2.86% (A) +
same,"Δ variation amidine Impurity % (HPLC-MS), impurity (B)",[3]; 184 h (Table 6),2.33% (B)
same,Color of the solid form after storage,[3],became yellowish
same,Crystalline transformation (XRPD),[4],No crystalline transformations were observed
saxagliptin HCl.malonic acid cocrystal (3:2) hydrate [Form III],"Solubility in water (in words, description)",[2],soluble in water
same,Solubility in water compared with saxagliptin HCl dihydrate H2-1,[2],solubility similar
same,Solubility in water: volumes of water in which the form is soluble,[2],approximately 4 volumes of water
"N#C[C@@H]1C[C@@H]2C[C@@H]2N1C(=O)[C@@H](N)C12CC3CC(CC(O)(C3)C1)C2 [Form H0.75-3, saxagliptin hydrochloride]",Crystal form stability (transformation to saxagliptin hydrochloride dihydrate H2-1),[1]; hydrochloride,transforms to saxagliptin hydrochloride dihydrate H2-1
"N#C[C@@H]1C[C@@H]2C[C@@H]2N1C(=O)[C@@H](N)C12CC3CC(CC(O)(C3)C1)C2 [Form P-5, saxagliptin hydrochloride]",Crystal form stability (transformation to saxagliptin hydrochloride dihydrate H2-1),[1]; hydrochloride,not very stable
saxagliptin HCl.saxagliptin cocrystal (1:1) hydrate [Form I],"Solubility in water (in words, description)",[2],soluble in water
same,Solubility in water,[2]; 20 vol. in water at room temperature (20-25° C.),soluble
same,Stability in water (reprecipitation),"[2]; 20 vol. in water at room temperature, after 24 h",reprecipitation was not observed
same,Degradation rate / stability compared with free base H-1 and hydrochloride H2-1,[3],much lower
same,"Δ variation amidine Impurity % (HPLC-MS), impurity (A)",[3]; 16 h (Table 6),0.08% (A)
same,"Δ variation amidine Impurity % (HPLC-MS), impurity (A)",[3]; 168 h (Table 6),0.38% (A)
same,"Δ variation amidine Impurity % (HPLC-MS), impurity (A)",[3]; 184 h (Table 6),0.40% (A)
same,Color of the solid form after storage,[3],remained white
same,Crystalline transformation (XRPD),[4],No crystalline transformations were observed
